Assay results published in ChEMBL document CHEMBL2440076, “New triarylpyrazoles as broad-spectrum anticancer agents: design, synthesis, and biological evaluation” (Eur J Med Chem, 2013).

Tests used:
SN12C = assay: Growth inhibition of human SN12C cells after 48 hrs by sulforhodamine B assay; type: functional
K562 [1] = assay: Growth inhibition of human K562 cells after 48 hrs by sulforhodamine B assay; type: functional; conditions: K562, 48 h
MDA-MB-468 [2] = assay: Growth inhibition of human MDA-MB-468 cells after 48 hrs by sulforhodamine B assay; type: functional, cell-based; conditions: MDA-MB-468, 48 h
DU-145 = assay: Growth inhibition of human DU145 cells after 48 hrs by sulforhodamine B assay; type: functional; conditions: DU-145, 48 h
NCI-H322M = assay: Growth inhibition of human NCI-H322M cells after 48 hrs by sulforhodamine B assay; type: functional
RPMI-8226 = assay: Growth inhibition of human RPMI8226 cells after 48 hrs by sulforhodamine B assay; type: functional, cell-based; conditions: RPMI-8226, 48 h
HOP-92 [3] = assay: Growth inhibition of human HOP92 cells after 48 hrs by sulforhodamine B assay; type: functional, cell-based; conditions: HOP-92, 48 h
T47D = assay: Growth inhibition of human T47D cells after 48 hrs by sulforhodamine B assay; type: functional
TK-10 [4] = assay: Growth inhibition of human TK10 cells after 48 hrs by sulforhodamine B assay; type: functional; conditions: TK-10, 48 h
HL-60(TB) = assay: Growth inhibition of human HL-60(TB) cells after 48 hrs by sulforhodamine B assay; type: functional; conditions: HL-60, 48 h
Malme-3M = assay: Growth inhibition of human MALME-3M cells assessed as cell growth at 10 uM after 48 hrs by sulforhodamine B assay; type: functional; conditions: read-out: Activity
MCF7 = assay: Growth inhibition of human MCF7 cells after 48 hrs by sulforhodamine B assay; type: functional; conditions: MCF7, 48 h
HOP-92 [5] = assay: Growth inhibition of human HOP92 cells assessed as cell growth at 10 uM after 48 hrs by sulforhodamine B assay; type: functional; conditions: HOP-92, 48 h, read-out: Activity
IGROV-1 = assay: Growth inhibition of human IGROV1 cells assessed as cell growth at 10 uM after 48 hrs by sulforhodamine B assay; type: functional; conditions: IGROV-1, 48 h, read-out: Activity
[6] = Growth inhibition of human HCC2998 cells assessed as cell growth at 10 uM after 48 hrs by sulforhodamine B assay; type: functional; conditions: HCC 2998, 48 h, read-out: Activity
TK-10 [7] = assay: Growth inhibition of human TK10 cells assessed as cell growth at 10 uM after 48 hrs by sulforhodamine B assay; type: functional; conditions: TK-10, 48 h, read-out: Activity
NCI-H460 = assay: Growth inhibition of human NCI-H460 cells assessed as cell growth at 10 uM after 48 hrs by sulforhodamine B assay; type: functional; conditions: NCI-H460, 48 h, read-out: Activity
A549 [8] = assay: Growth inhibition of human A549/ATCC cells after 48 hrs by sulforhodamine B assay; type: functional; conditions: A549, 48 h
SNB-19 = assay: Growth inhibition of human SNB19 cells assessed as cell growth at 10 uM after 48 hrs by sulforhodamine B assay; type: functional; conditions: SNB-19, 48 h, read-out: Activity
MDA-MB-231 = assay: Growth inhibition of human MDA-MB-231 cells assessed as cell growth at 10 uM after 48 hrs by sulforhodamine B assay; type: functional; conditions: MDA-MB-231, 48 h, read-out: Activity
K562 [9] = assay: Growth inhibition of human K562 cells assessed as cell growth at 10 uM after 48 hrs by sulforhodamine B assay; type: functional; conditions: K562, 48 h, read-out: Activity
MDA-MB-468 [10] = assay: Growth inhibition of human MDA-MB-468 cells assessed as cell growth at 10 uM after 48 hrs by sulforhodamine B assay; type: functional; conditions: MDA-MB-468, 48 h, read-out: Activity
OVCAR-3 = assay: Growth inhibition of human OVCAR3 cells after 48 hrs by sulforhodamine B assay; type: functional, cell-based; conditions: OVCAR-3, 48 h
SK-MEL-2 [11] = assay: Growth inhibition of human SK-MEL-2 cells after 48 hrs by sulforhodamine B assay; type: functional; conditions: SK-MEL-2, 48 h
A549 [12] = assay: Growth inhibition of human A549/ATCC cells assessed as cell growth at 10 uM after 48 hrs by sulforhodamine B assay; type: functional; conditions: A549, 48 h, read-out: Activity
[13] = Growth inhibition of human Hs 578T cells after 48 hrs by sulforhodamine B assay; type: functional
HCT-15 = assay: Growth inhibition of human HCT15 cells assessed as cell growth at 10 uM after 48 hrs by sulforhodamine B assay; type: functional; conditions: HCT-15, 48 h, read-out: Activity
CCRF-CEM = assay: Growth inhibition of human CCRF-CEM cells assessed as cell growth at 10 uM after 48 hrs by sulforhodamine B assay; type: functional; conditions: read-out: Activity
SK-MEL-2 [14] = assay: Growth inhibition of human SK-MEL-2 cells assessed as cell growth at 10 uM after 48 hrs by sulforhodamine B assay; type: functional; conditions: SK-MEL-2, 48 h, read-out: Activity
SNB-75 = assay: Growth inhibition of human SNB75 cells after 48 hrs by sulforhodamine B assay; type: functional; conditions: SNB-75, 48 h
LOX IMVI = assay: Growth inhibition of human LOXIMVI cells after 48 hrs by sulforhodamine B assay; type: functional
NCI-H226 = assay: Growth inhibition of human NCI-H226 cells after 48 hrs by sulforhodamine B assay; type: functional; conditions: NCI-H226, 48 h
KM12 = assay: Growth inhibition of human KM12 cells after 48 hrs by sulforhodamine B assay; type: functional, cell-based; conditions: KM12, 48 h
RXF 393 = assay: Growth inhibition of human RXF393 cells assessed as cell growth at 10 uM after 48 hrs by sulforhodamine B assay; type: functional; conditions: RXF 393, 48 h, read-out: Activity
[15] = read-out: LC50 (the source's name)

What does the source list for `O=C(Nc1cccc(-n2cc(-c3ccncc3)c(-c3ccc(Cl)c(O)c3)n2)c1)c1ccc(N2CCOCC2)c(C(F)(F)F)c1`?
GI50 (SN12C): 22 µM; TGI (SN12C): > 50 µM; CC50 (SN12C; [15]): > 50 µM; GI50 (K562 [1]): 1.88 µM; TGI (K562 [1]): > 50 µM; CC50 (K562 [1]; [15]): > 50 µM; GI50 (MDA-MB-468 [2]): 7.04 µM; IC50 (MDA-MB-468 [2]): 7.04 µM; TGI (MDA-MB-468 [2]): 26.6 µM; CC50 (MDA-MB-468 [2]; [15]): > 50 µM; GI50 (DU-145): 4.2 µM; LC50 (DU-145): > 50 µM; TGI (DU-145): > 50 µM; GI50 (NCI-H322M): > 50 µM; TGI (NCI-H322M): > 50 µM; CC50 (NCI-H322M; [15]): > 50 µM; GI50 (RPMI-8226): 1.4 µM; IC50 (RPMI-8226): 1.4 µM; TGI (RPMI-8226): 12.5 µM; CC50 (RPMI-8226; [15]): > 50 µM; GI50 (HOP-92 [3]): 0.555 µM; IC50 (HOP-92 [3]): 0.56 µM; LC50 (HOP-92 [3]): > 50 µM; TGI (HOP-92 [3]): 3.81 µM; GI50 (T47D): 35.9 µM; TGI (T47D): > 50 µM; CC50 (T47D; [15]): > 50 µM; GI50 (TK-10 [4]): 21.3 µM; TGI (TK-10 [4]): > 50 µM; CC50 (TK-10 [4]; [15]): > 50 µM; GI50 (HL-60(TB)): 3.81 µM; TGI (HL-60(TB)): > 50 µM; CC50 (HL-60(TB); [15]): > 50 µM; growth at 10 µM (Malme-3M): 10.7%; GI50 (MCF7): 2.81 µM; LC50 (MCF7): > 50 µM; TGI (MCF7): > 50 µM; growth at 10 µM (HOP-92 [5]): 10.2%; growth at 10 µM (IGROV-1): 96.8%; growth at 10 µM [6]: 56.4%; growth at 10 µM (TK-10 [7]): 119%; growth at 10 µM (NCI-H460): 5.81%; GI50 (A549 [8]): 3.08 µM; LC50 (concentration killing 50% of starting cells) (A549 [8]): > 50 µM; TGI (A549 [8]): > 50 µM; growth at 10 µM (SNB-19): 65.7%; growth at 10 µM (MDA-MB-231): 23.4%; growth at 10 µM (K562 [9]): 7.96%; growth at 10 µM (MDA-MB-468 [10]): 66%; GI50 (OVCAR-3): 4.81 µM; IC50 (OVCAR-3): 4.81 µM; TGI (OVCAR-3): > 50 µM; CC50 (OVCAR-3; [15]): > 50 µM; GI50 (SK-MEL-2 [11]): 2.89 µM; LC50 (50% lethal concentration) (SK-MEL-2 [11]): > 50 µM; TGI (SK-MEL-2 [11]): 15.3 µM; growth at 10 µM (A549 [12]): 31.4%; GI50 [13]: 1.85 µM; TGI [13]: > 50 µM; CC50 [13, 15]: > 50 µM; growth at 10 µM (HCT-15): 26.2%; growth at 10 µM (CCRF-CEM): 27.9%; growth at 10 µM (SK-MEL-2 [14]): 17.6%; GI50 (SNB-75): 1.3 µM; LC50 (lethal concentration, 50% net cell kill) (SNB-75): > 50 µM; TGI (SNB-75): > 50 µM; GI50 (LOX IMVI): 1.64 µM; LC50 (LOX IMVI): 44.8 µM; TGI (LOX IMVI): 7.3 µM; GI50 (NCI-H226): > 50 µM; TGI (NCI-H226): > 50 µM; CC50 (NCI-H226; [15]): > 50 µM; GI50 (KM12): 1.94 µM; TGI (KM12): > 50 µM; CC50 (KM12; [15]): > 50 µM; growth at 10 µM (RXF 393): -26%
